Paper PMC2782732 (ACS chemical biology, 2008)

Biological target: dengue E protein (Dengue virus type 2, UniProt P12823)
Type: binding
Details: BOG plus dengue E protein, on-resonance irradiation at −2 ppm

CCCCCCCCO[C@@H]1O[C@H](CO)[C@@H](O)[C@H](O)[C@H]1O [BOG, N-octyl-β-D-glucoside]
STD NMR signal of ligand with E protein: strong signals
